According to article PMC10283505, “CVM-1118 (foslinanib), a 2-phenyl-4-quinolone derivative, promotes apoptosis and inhibits vasculogenic mimicry via targeting TRAP1” (Pathology and Oncology Research, 2023):

Assays:
K-562 = test: NCI 60 cytotoxicity screening; format: cell-based; details: Homo sapiens, K562; K-562, Leukemia
SK-MEL28 = test: Succinate level (Abcam kit, hypoxia); format: cell-based, human; details: SK-MEL28, 100 nM, 72 h, vs vehicle control
Protocol: (§1) Succinate levels in the cells were assessed using the Abcam assay kit (ab204718). Cells were grown under hypoxic conditions (1% O2) at 37°C using a ProOx P110 Oxygen Controller (BioSpherix) and hypoxia chamber to establish a consistent and steady expression of HIF-1α in these cells for the experiments. At 80% confluence, cells were rinsed with phosphate buffered saline (PBS; 137 mM NaCl/2.7 mM KCl/10 mM Na2HPO4/1.8 mM KH2PO4, pH 7.4), then harvested by scrapping into a modified radio-immunoprecipitation assay (RIPA) buffer (100 mM Tris-HCl, 150 mM NaCl, 1% deoxycholate, 1% Triton X-100, 0.1% SDS, pH 7.4) plus protease inhibitor cocktail (Complete Mini; Roche) using 100 μL buffer per 1 × 10^6 cells. After sonication using a Fisher sonic dismembrator with microprobe (Fisher Scientific; five pulses at 2 s intervals) and centrifugation at 13,000 rpm for 30 min, the protein lysates (supernatants) were recovered, and protein concentrations determined using a bicinchoninic acid (BCA) assay (Bio-Rad). The samples were then deproteinated using Abcam 10 kDa Spin Columns (ab93349; which reduced the protein concentration by about 90%) and the samples were standardized at <10 μg of protein per sample per 50 μL of assay volume (as directed by the Abcam technical response team for working with these samples). The concentration of succinate (nmol/μL or μmol/mL or […]) for each sample was calculated after subtracting a background control (which was the sample run with assay buffer in place of the succinate converter component to account for and subtract any contaminating signal generated by NADH), as follows: Succinate = (A/B) × D; where: A = Amount of succinate (succinic acid) from the Standard Curve; B = Sample volume added into the reaction well (μL); D = Sample dilution factor. Two separate experiments were performed for each cell line.

COLO205 = test: Succinate level (Abcam kit, hypoxia); format: cell-based, human; details: COLO205, 100 nM, 72 h, vs vehicle control
Protocol: as §1

SKOV3 = test: Succinate level (Abcam kit, hypoxia); format: cell-based, human; details: SKOV3, 100 nM, 72 h, vs vehicle control
Protocol: as §1

MDA-MB-231 = test: Succinate level (Abcam kit, hypoxia); format: cell-based, human; details: MDA-MB-231, 100 nM, 72 h, vs vehicle control
Protocol: as §1

TRAP1 = molecular target: T1, TRAP1 (Homo sapiens, UniProt Q12931); test: Western blot of TRAP1 protein level; format: cell-based; set-up: purchased Abcam ab123775
T1 sequence (Q12931 60-704): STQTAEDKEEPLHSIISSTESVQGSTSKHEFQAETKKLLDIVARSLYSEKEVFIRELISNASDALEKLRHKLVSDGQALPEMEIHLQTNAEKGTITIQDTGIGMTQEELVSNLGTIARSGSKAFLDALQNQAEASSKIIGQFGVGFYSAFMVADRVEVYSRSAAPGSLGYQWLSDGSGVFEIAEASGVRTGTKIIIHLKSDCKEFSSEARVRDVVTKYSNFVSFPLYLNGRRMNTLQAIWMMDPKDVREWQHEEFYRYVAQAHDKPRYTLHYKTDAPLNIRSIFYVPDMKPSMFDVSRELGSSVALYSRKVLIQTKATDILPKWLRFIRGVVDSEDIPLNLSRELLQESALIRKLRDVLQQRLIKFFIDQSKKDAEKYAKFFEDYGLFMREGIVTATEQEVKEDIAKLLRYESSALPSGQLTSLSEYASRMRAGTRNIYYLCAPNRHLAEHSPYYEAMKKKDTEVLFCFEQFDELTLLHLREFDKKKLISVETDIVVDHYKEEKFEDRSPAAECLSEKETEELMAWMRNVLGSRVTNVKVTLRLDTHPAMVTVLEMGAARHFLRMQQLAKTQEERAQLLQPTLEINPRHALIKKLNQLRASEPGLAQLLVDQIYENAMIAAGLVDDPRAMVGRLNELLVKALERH
Protocol: The methods for detecting TRAP1 proteins were as follows: 4 × 10^5 SKOV-3 cells and 8 × 10^5 COLO-205 cells were seeded onto 6-well plates. After 18 h, the culture medium was changed to contain 50, 100, 200, and 400 nM CVM-1125, and samples were recovered for analysis at 24 or 48 h. To explore the pathway of CVM-1125 degradation of TRAP1 protein, the experimental design was as follows: 1 × 10^6 COLO-205 cells were seeded onto 6-well plates. After 18 h, the culture medium was changed to contain 200 nM CVM-1125, 25 µM chloroquine (CQ), and 2.5 µM MG132, and samples were recovered for analysis at 24 h. Cells at 80% confluence were collected with trypsin, centrifuged, and harvested by PBS into a sample buffer (1M Tris pH 6.8, 50% Glycerol, 10% SDS, 1% bromophenol blue, and 2-mercaptoethanol). Cell lysates were heated at 95°C for 10 min and loaded onto 10% SDS-PAGE. Proteins separated on the gel were transferred to a 0.45 μM PVDF membrane (Merk Milipore, IPVH00010) at 4°C overnight and was then blocked at room temperature with 5% skim milk for 30 min. The primary antibodies were diluted with 5% skim milk in PBS for β-actin (Sigma, A5441, 1:20,000) and TRAP1 (Santa Cruz, sc-13557, 1:100) and incubated for 2 h at room temperature. […]

COc1ccc2[nH]c(-c3cccc(F)c3)cc(=O)c2c1O [CVM-1125]
GI50 (K-562): 24.1 nM
reduction of succinate levels (SK-MEL28): 23%
reduction of succinate levels (COLO205): 18%
reduction of succinate levels (SKOV3): 35%
reduction of succinate levels (MDA-MB-231): 20%
TRAP1 protein levels (TRAP1; COLO205, 50–400 nM): reduced with increasing concentrations
TRAP1 protein levels (TRAP1; SKOV3, 50–400 nM): reduced with increasing concentrations
